Experimental data: paper PMC5349141, “Polyamines directly promote antizyme-mediated degradation of ornithine decarboxylase by the proteasome” (Microbial Cell, 2015)
Numbering of substitutions follows the chain as printed.

Columns and labels:
[1] = biological target: T1, 6His-Oaz1 (antizyme, OAZ) (Saccharomyces cerevisiae, UniProt Q02803); test: competition with [3H]-spermidine; assay type: binding; details: 10 µM [3H]-spermidine; competitive
T1 construct: full-length, in-frame OAZ1 (no ribosomal frameshift needed), 6His tag, from E. coli Rosetta (plasmid pDG240)
T1 sequence (Q02803 1-292): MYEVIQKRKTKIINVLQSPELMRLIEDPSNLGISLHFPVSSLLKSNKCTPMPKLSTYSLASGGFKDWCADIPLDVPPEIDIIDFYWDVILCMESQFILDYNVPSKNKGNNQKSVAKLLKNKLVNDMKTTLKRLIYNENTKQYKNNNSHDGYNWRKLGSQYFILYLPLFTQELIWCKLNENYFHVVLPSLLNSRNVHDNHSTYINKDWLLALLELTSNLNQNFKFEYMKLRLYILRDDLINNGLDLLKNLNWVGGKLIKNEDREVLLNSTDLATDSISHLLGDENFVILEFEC

26S proteasome = biological target: T2, 26S proteasome (Saccharomyces cerevisiae, UniProt P23724+P30656); test: Suc-LLVY-AMC hydrolysis; assay type: biochemical; details: 1 mM ATP; 1 mM DTT; 5 mM MgCl2; pH 7.8; weak effect, site unknown
T2 construct: gene PRE2; anti-Flag beads; singly and doubly capped, some free 20S; with Proteasome subunit beta type-4; Proteasome subunit beta type-1; Proteasome subunit beta type-2; Proteasome subunit beta type-3; Proteasome subunit beta type-7; Proteasome subunit alpha type-1; Proteasome subunit alpha type-2; Proteasome subunit alpha type-3; Proteasome subunit alpha type-4; Proteasome subunit alpha type-5; Proteasome subunit alpha type-6; Proteasome subunit alpha type-7

[2] = biological target: T3, 6His-Oaz1 (antizyme, OAZ) (Saccharomyces cerevisiae, UniProt Q02803, L245A/L246A/K247A/W251A); test: [3H]-spermidine retention by 6His-tagged protein; assay type: binding; details: labelled compound
T3 construct: full-length, in-frame OAZ1 (no ribosomal frameshift needed), 6His tag, from E. coli Rosetta (plasmid pDG240)
T3 sequence (Q02803 1-292 L245A/L246A/K247A/W251A): T1 sequence (Q02803 1-292) with L245A, L246A, K247A, W251A

[3] = biological target: T1, 6His-Oaz1 (antizyme, OAZ); test: [3H]-spermidine retention by 6His-tagged protein; assay type: binding; details: labelled compound

Structure (SMILES): CC(=O)NCCCNCCCCN [N1-acetylspermidine]
- competition with [3H]-spermidine [1]: mono-acetylspermidine derivatives: "mono-acetylated spermidine derivatives showed a clearly reduced binding to antizyme"

Structure (SMILES): CC(=O)NCCCCNCCCN [N8-acetylspermidine]
- competition with [3H]-spermidine [1]: mono-acetylated spermidine derivatives showed a clearly reduced binding to antizyme

Structure (SMILES): NCCCNCCCCNCCCN [spm, spermine]
- activity versus spermine concentration (26S proteasome): A small reduction in proteasome activity was observed with polyamine addition

Structure (SMILES): NCCCCNCCCN [spd, spermidine]
- [3H]-spermidine retention by 6His-tagged protein [2]: Oaz1-4res bound [^3H]-spermidine with a similar efficiency as its wild-type counterpart
- [3H]-spermidine retention by 6His-tagged protein [3]: retention of [^3H]-spermidine by 6His-Oaz1 or 6His-Oaz1-4res
